Measured values: patent US4740233A, “Substituted 1,2,4-triazolo[1,5-a]-pyrimidine-2-sulfonamides and compositions and methods of controlling undesired vegetation and suppressing the nitrification of ammonium nitrogen in soil” (The Dow Chemical Company, priority 1986, dated 1988)

Key:
Test in all cases: Preemergent control of plant species
sorghum = assay type: in vivo, Sorghum vulgare; conditions: Sorghum, pre-emergence, 336 h; 0.25 lb/acre; read-out: percent preemergent control
Procedure: (§1) The seeds of various species of plants were planted in beds of good agricultural soil in a greenhouse. A number of compositions of the present invention, generally in the nature of an aqueous emulsion, were applied at rates listed in the table so as to deposit a predetermined amount of active ingredients uniformly throughout the surface of the bed. Another seed bed was treated only with water to serve as a control. After treatment the seed beds were maintained for two weeks under greenhouse conditions conducive for good plant growth and watered as necessary. Control refers to the reduction in growth compared to the observed results of the same untreated species.

velvetleaf = assay type: in vivo, Abutilon theophrasti; conditions: Abutilon theophrasti, pre-emergence, 336 h; 0.25 lb/acre; read-out: percent preemergent control
Procedure: as §1

johnson grass = assay type: in vivo, Sorghum halepense; conditions: Sorghum halepense, pre-emergence, 336 h; 0.25 lb/acre; read-out: percent preemergent control
Procedure: as §1

annual morning glory = assay type: in vivo, Ipomoea spp.; conditions: Ipomoea, pre-emergence, 336 h; 0.25 lb/acre; read-out: percent preemergent control
Procedure: as §1

jimsonweed = assay type: in vivo, Datura stramonium; conditions: Datura stramonium, pre-emergence, 336 h; 0.25 lb/acre; read-out: percent preemergent control
Procedure: as §1

sugar beet = assay type: in vivo, Beta saccharifera; conditions: Beta vulgaris, pre-emergence, 336 h; 0.25 lb/acre; read-out: percent preemergent control
Procedure: as §1

yellow nutsedge = assay type: in vivo, Cyperus esculentus; conditions: Cyperus, pre-emergence, 336 h; 0.25 lb/acre; read-out: percent preemergent control
Procedure: as §1

barnyardgrass = assay type: in vivo, Echinochloa crusgalli; conditions: Echinochloa crus-galli, pre-emergence, 336 h; 0.25 lb/acre; read-out: percent preemergent control
Procedure: as §1

cotton = assay type: in vivo, Gossypium spp.; conditions: Gossypium hirsutum, pre-emergence, 336 h; 0.25 lb/acre; read-out: percent preemergent control
Procedure: as §1

yellow foxtail = assay type: in vivo, Setaria lutescens; conditions: Setaria, pre-emergence, 336 h; 0.25 lb/acre; read-out: percent preemergent control
Procedure: as §1

soybean = assay type: in vivo, Glycine max.; conditions: Glycine max, pre-emergence, 336 h; 0.25 lb/acre; read-out: percent preemergent control
Procedure: as §1

wheat = assay type: in vivo, Triticum aestivum; conditions: Triticum aestivum, pre-emergence, 336 h; 0.25 lb/acre; read-out: percent preemergent control
Procedure: as §1

rice = assay type: in vivo, Oryza sativa; conditions: Oryza sativa, pre-emergence, 336 h; 0.25 lb/acre; read-out: percent preemergent control
Procedure: as §1

rape = assay type: in vivo, Brassica napus; conditions: Brassica napus, pre-emergence, 336 h; 0.25 lb/acre; read-out: percent preemergent control
Procedure: as §1

corn = assay type: in vivo, Zea mays; conditions: Zea mays, pre-emergence, 336 h; 0.25 lb/acre; read-out: percent preemergent control
Procedure: as §1

SMILES | plant injury at 280.212 g/ha (sorghum) | pest or weed control at 280.212 g/ha (velvetleaf) | pest or weed control at 280.212 g/ha (johnson grass) | pest or weed control at 280.212 g/ha (annual morning glory) | pest or weed control at 280.212 g/ha (jimsonweed) | plant injury at 280.212 g/ha (sugar beet) | pest or weed control at 280.212 g/ha (yellow nutsedge) | pest or weed control at 280.212 g/ha (barnyardgrass) | plant injury at 280.212 g/ha (cotton) | pest or weed control at 280.212 g/ha (yellow foxtail) | plant injury at 280.212 g/ha (soybean) | plant injury at 280.212 g/ha (wheat) | plant injury at 280.212 g/ha (rice) | plant injury at 280.212 g/ha (rape) | plant injury at 280.212 g/ha (corn)
COC(=O)c1cccc(C)c1NS(=O)(=O)c1nc2nccc(C)n2n1 [Compound 189] | 100% | 100% | 70% | 50% | 80% | 100% | 100% | 80% | 100% | 80% | 80% | 80% | 90% | 100% | 80%
COc1nc2nc(S(=O)(=O)Nc3ccccc3C(F)(F)F)nn2cc1C [Compound 217] | 100% | 100% | 100% | 100% | 100% | 100% | 70% | 90% | 100% | 50% | 100% | 100% | 90% | 100% | 50%
COc1nc2nc(S(=O)(=O)Nc3c(Cl)ccc(C)c3Cl)nn2cc1C [Compound 218] | 95% | 100% | 50% | 100% | 100% | 100% | 50% | 0% | 100% | 50% | 100% | 0% | 0% | 100% | 0%
COc1nc2nc(S(=O)(=O)Nc3c(F)ccc(C)c3F)nn2cc1C [Compound 219] | 100% | 100% | 10% | 100% | 100% | 100% | 100% | 100% | 100% | 100% | 100% | 100% | 50% | 100% | 100%
COc1nc2nc(S(=O)(=O)Nc3c(C)cccc3Cl)nn2cc1C [Compound 220] | 100% | 100% | 100% | 70% | 100% | 100% | 100% | 90% | 100% | 100% | 90% | 100% | 50% | 100% | 100%
COc1nc2nc(S(=O)(=O)Nc3c(C)cccc3[N+](=O)[O-])nn2cc1C [Compound 221] | 100% | 100% | 70% | 100% | 100% | 100% | 100% | 100% | 100% | 100% | 100% | 90% | 100% | 100% | 90%
COc1nc2nc(S(=O)(=O)Nc3c([N+](=O)[O-])ccc(C)c3C)nn2cc1C [Compound 222] | 50% | 100% | 100% | 90% | 100% | 100% | 50% | 0% | 100% | 30% | 100% | 0% | 90% | 100% | 40%
Cc1cc(C(F)(F)F)n2nc(S(=O)(=O)Nc3c(Cl)cccc3Cl)nc2n1 [Compound 227] | 100% | 30% | 70% | 70% | 100% | 100% | 100% | 50% | 60% | 90% | 0% | 90% | 50% | 100% | 40%
Cc1cc(C(F)(F)F)n2nc(S(=O)(=O)Nc3c(Cl)ccc(C)c3Cl)nc2n1 [Compound 229] | 90% | 90% | 0% | 100% | 90% | 100% | 100% | 0% | 100% | 0% | 30% | 0% | 10% | 100% | 40%
Cc1cc(C(F)(F)F)n2nc(S(=O)(=O)Nc3c(F)ccc(C)c3F)nc2n1 [Compound 230] | 100% | 90% | 90% | 90% | 100% | 100% | 100% | 100% | 100% | 80% | 20% | 30% | 50% | 90% | 90%
CCC(=O)N(c1c(F)cccc1F)S(=O)(=O)c1nc2nc(C)ccn2n1 [Compound 276] | 100% | 100% | 90% | 90% | 100% | 100% | 100% | 100% | 80% | 100% | 10% | 80% | 90% | 100% | 60%
Cc1ccn2nc(S(=O)(=O)N(C(=O)CC(C)(C)C)c3c(F)cccc3F)nc2n1 [Compound 278] | 100% | 100% | 90% | 100% | 100% | 100% | 100% | 100% | 100% | 100% | 70% | 70% | 90% | 100% | 60%
